Test [1] has as its target T1, rat EP4 receptor (Rattus norvegicus, UniProt P43114).
T1 construct: expressed in transfected cells
Nature of the test: Rat EP4 receptor binding assay (3H-PGE2 displacement, 293S cell membranes). As to conditions: displacement of 3H-prostaglandin E2, 293S membranes, 1 hour at 25° C. The source says: (§1) The compounds of Formula I or II, which are useful in the methods of the present invention, bind to the prostaglandin E2 type 4 receptor (EP4 receptor). The full-length coding sequence for the human EP1 receptor is made in accordance with the procedure in Funk et al., Journal of Biological Chemistry, 1993, 268, 26767-26772. The full-length rat EP2 receptor is made in accordance with the procedure in Nemoto et al., Prostaglandins and other Lipid Mediators, 1997, 54, 713-725. The full-length coding sequence for the human EP3 receptor is made in accordance with the procedure in Regan et al., British Journal of Pharmacology, 1994, 112, 377-385. The full-length coding sequence for the rat EP4 receptor is made in accordance with the procedure in Sando et al., Biochem. Biophys. Res. Comm. 1994, 200,1329-1333. These full-length receptors are used to prepare 293S cells expressing the human EP1, rat EP2, human EP3 or rat EP4 receptors.
(§2) Human EP1, Rat EP2, Human EP3, Rat EP4 Receptor Binding Assay
(§3) The full-length receptors described above are used to prepare 293S cells expressing the EP1, EP2, EP3, and EP4 receptors.
(§4) 293S cells expressing either the human EP1, rat EP2, human EP3 or rat EP4 prostaglandin E2 receptors are generated according to methods known to those skilled in the art. Typically, PCR (polymerase chain reaction) primers corresponding to the 5′ and 3′ ends of the published full length receptor are made according to the well known methods disclosed above and are used in an RT-PCR (reverse transcriptase-polymerase chain reaction) reaction using the total RNA from human kidney (for EP1), rat kidney (for EP2), human lung (for EP3), or rat kidney (EP4) as a source. PCR products are cloned by the TA overhang method into pCR2.1 (Invitrogen Corporation, Carlsbad, Calif.) and identity of the cloned receptor is confirmed by DNA sequencing. For expression of the rat EP2 receptor, the confirmed cDNA is subcloned into the mammalian expression vector PURpCl, a vector generated by subcloning the selectable marker for puromycin resistance into the mammalian expression vector pCl (Promega, Madison, Wis.)
(§5) 293S cells are transfected with either the cloned human EP1 or EP3 receptor in pcDNA3 by electroporation. Stable cell lines expressing either the human EP1 or EP3 receptor are established following selection of transfected cells with G418. 293S cells are transfected with the cloned rat EP2 receptor in PURpCi by lipid mediated transfection. Stable cell lines expressing the rat EP2 receptor are established following selection of transfected cells with puromycin. 293S cells are transfected with the cloned rat EP4 receptor in pcDNA3 by lipid mediated transfection. Stable cell lines expressing the rat EP4 receptor are established following selection of transfected cells with Geneticin® (Invitrogen, Carlsbad, Calif.).
(§6) Clonal cell lines expressing the maximal number of receptors are chosen following a whole cell ^3H-PGE2 binding assay using unlabeled PGE2 as a competitor.
(§7) Membrane Preparation: All operations are performed at 4° C. Transfected cells expressing either prostaglandin E2 type 1, type 2, type 3, or type 4 (EP1, EP2, EP3, or EP4, respectively) receptors are harvested and suspended to 2 million cells per ml in Buffer A [50 mM Tris-HCl (pH 7.4), 10 mM MgCI2, 1 mM EDTA, 1 mM Pefabloc peptide, (Boehringer Mannheim Corp., Indianapolis, Ind.), 10 uM Phosporamidon peptide, (Sigma, St. Louis, Mo.), 1 uM pepstatin A peptide, (Sigma, St. Louis, Mo.), 10 uM elastatinal peptide, (Sigma, St. Louis, Mo.), 100 uM antipain peptide, (Sigma, St. Louis, Mo.)]. The cells are lysed by sonification with a Branson Sonifier (Branson Ultrasonics Corporation, Danbury, Conn.) in 2 fifteen-second bursts. Unlysed cells and debris are removed by centrifugation at 100 ×g for 10 min. Membranes are then harvested by centrifugation at 45,000×g for 30 minutes. […]
(Displacement assays read how much labelled ligand stays bound in the presence of the test substance.)

Test [2] deals with T1, rat EP4 receptor. Kind of test: Cyclic AMP elevation in 293S cell lines stably overexpressing recombinant rat EP4 receptors. As to conditions: 293S cells expressing rat EP4, 1 mM IBMX, 12 minutes at 37° C.; read-out: EC50 in the cAMP (rat EP4) elevation assay. It counts as cell-based. The source says: Determination of Cyclic AMP Elevation in 293S Cell Lines Stably Overexpressing Recombinant Rat EP4 Receptors Assay
cDNA representing the complete open reading frame of the rat EP4 receptor is generated by reverse transcriptase polymerase chain reaction using oligonucleotide primers based on published sequences. The full length coding sequence for the rat EP4 receptor is made in accordance with the procedure in Sando et al., Biochem. Biophys. Res. Comm. 1994, 200, 1329-1333, and RNA from rat kidney (EP4) as templates. 293S cells are transfected with the cloned rat EP4 receptor in pcDNA3 by lipid mediated transfection. Stable cell lines expressing the rat EP4 receptor are established following selection of transfected cells with Geneticin® (Invitrogen Corporation, Carlsbad, Calif.).
(§8) Clonal cell lines expressing the maximal number of receptors are chosen following a whole cell ^3H-PGE2 binding assay using unlabeled PGE2 as a competitor. […] Constitutive expression of the receptor in parental 293-S cells is negligible. A stable cell line containing the rat EP4 receptor is grown in Dulbecco's Mosified Eagle Medium/F12 (DMEM/F12) containing 10% fetal bovine serum and G418 (500 μg/ml) to 80% confluency.
cAMP responses in the 293-S/EP4 lines are determined by detaching cells from culture flasks in 1 ml of calcium (Ca++) and magnesium (Mg++) deficient phosphate buffered saline (PBS) via vigorous pounding and then rinsing the cells with calcium (Ca++) and magnesium (Mg++) deficient phosphate buffered saline (PBS). The cells are resuspended in MEM (Minimum Essential Medium), 1% BSA (bovine serum albumin), 50 mM HEPES (N-[2-Hydroxyethyl]piperazine-N′-[2-ethanesulfonic acid]) at 37° C. The cell suspension is counted on a hemacytometer and diluted by adding MEM (Minimum Essential Medium) to a final concentration of 1×10^6 cells/ml, and adding 3-isobutyl-1-methylxanthine (IBMX) to a final concentration of 1 mM. 200 microliters of cell suspension is immediately aliquoted into individual tubes and incubated for 10 minutes, uncovered, at 37° C., 5% CO2, 95% relative humidity. The compound of Formula I or II to be tested in either dimethylsulfoxide (DMSO) or ethanol is then added to cells at 1:100 dilutions such that the final DMSO or ethanol concentration is 1%. Typically, the cells are treated with 6-8 different concentrations (in 1 log increments, such as those described below) of the compound of Formula I or II. Typical concentrations of the compound of Formula I or II in this assay are between 10^−5M to 10^−10M. For example, a six point compound dose response assay tests the compound of Formula I or II at concentrations of 10^−5M, 10^−6M, 10^−7M, 10^−8M, 10^−9M and 10^—10M. Immediately after adding the test compound, the tubes are covered, mixed by inverting two times, and incubated at 37° C. for 12 minutes. Samples are then lysed by incubation at 100° C. for 10 minutes and immediately cooled on ice for 5 minutes to approximately 4° C. Cellular debris is pelleted by centrifugation at 3500×g for 5 minutes at approximately 4° C., and cleared lysates are transferred to fresh tubes. cAMP concentrations are determined using a commercially available ^125I-cAMP radioimmunoassay (RIA) kit (NEK-033, Perkin-Elmer Life Sciences, Inc., Boston, Mass.). The cleared lysates are diluted 1:100 in cAMP RIA assay buffer (included in kit) and centrifuged again. 50 microliters of the resulting supernatant is transferred to a 12×75 mm glass tube and data is collected by scintillation counting using a Wallac Cobra II Gamma Counter (Perkin-Elmer Wallac, Inc., Gaithersburg, Md.). EC50 calculations are performed on a calculator using linear regression analysis on the linear portion of the dose response curves or using Data Fitter.

The target of the next test is T2, rat EP2 receptor (Rattus norvegicus, UniProt Q62928).
T2 construct: The full-length rat EP2 receptor is made in accordance with the procedure in Nemoto et al; expressed in transfected cells
T2 sequence (Q62928 whole entry): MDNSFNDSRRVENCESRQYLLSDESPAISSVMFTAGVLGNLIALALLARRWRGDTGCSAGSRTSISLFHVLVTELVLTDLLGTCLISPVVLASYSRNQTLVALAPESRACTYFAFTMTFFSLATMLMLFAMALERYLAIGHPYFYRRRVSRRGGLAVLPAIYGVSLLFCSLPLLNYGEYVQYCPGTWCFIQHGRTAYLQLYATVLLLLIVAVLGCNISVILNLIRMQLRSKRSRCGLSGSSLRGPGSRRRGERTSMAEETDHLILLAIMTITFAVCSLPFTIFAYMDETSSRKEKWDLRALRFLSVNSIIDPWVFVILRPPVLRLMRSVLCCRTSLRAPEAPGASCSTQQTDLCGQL
Nature of the test: Rat EP2 receptor binding assay (3H-PGE2 displacement, 293S cell membranes). The conditions noted are these: displacement of 3H-prostaglandin E2, 293S membranes, 1 hour at 25° C.
From the text: as §1, §2, §3, §4, §5, §6, §7

In a further test the target is T3, human EP3 receptor (Homo sapiens, UniProt P43115).
T3 construct: expressed in transfected cells
T3 sequence (P43115 1-390): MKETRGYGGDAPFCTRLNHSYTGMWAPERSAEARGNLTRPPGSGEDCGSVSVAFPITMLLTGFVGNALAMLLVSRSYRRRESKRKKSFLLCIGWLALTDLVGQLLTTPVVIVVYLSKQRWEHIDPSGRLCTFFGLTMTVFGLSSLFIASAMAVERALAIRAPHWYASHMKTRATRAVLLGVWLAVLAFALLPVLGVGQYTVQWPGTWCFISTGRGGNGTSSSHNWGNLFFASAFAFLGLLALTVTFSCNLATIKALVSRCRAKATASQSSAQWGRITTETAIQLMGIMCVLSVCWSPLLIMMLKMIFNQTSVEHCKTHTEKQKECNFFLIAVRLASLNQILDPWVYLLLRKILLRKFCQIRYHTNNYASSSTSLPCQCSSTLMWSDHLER
Kind of test: Human EP3 receptor binding assay (3H-PGE2 displacement, 293S cell membranes). The conditions noted are these: displacement of 3H-prostaglandin E2, 293S membranes, 1 hour at 25° C.
From the text: as §1, §2, §3, §4, §5, §6, §7

A further test addresses T4, human EP1 receptor (Homo sapiens, UniProt P34995).
T4 construct: expressed in transfected cells
T4 sequence (P34995 1-402): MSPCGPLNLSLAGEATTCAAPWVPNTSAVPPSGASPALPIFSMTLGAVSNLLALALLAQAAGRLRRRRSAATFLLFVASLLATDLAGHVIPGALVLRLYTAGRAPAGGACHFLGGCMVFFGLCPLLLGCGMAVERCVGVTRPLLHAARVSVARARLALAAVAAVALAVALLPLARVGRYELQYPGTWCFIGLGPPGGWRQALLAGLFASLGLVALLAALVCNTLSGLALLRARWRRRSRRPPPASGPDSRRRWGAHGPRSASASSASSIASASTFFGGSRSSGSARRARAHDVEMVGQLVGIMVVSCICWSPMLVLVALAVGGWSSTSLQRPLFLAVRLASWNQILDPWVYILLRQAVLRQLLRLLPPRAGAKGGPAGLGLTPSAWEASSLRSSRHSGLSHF
Nature of the test: Human EP1 receptor binding assay (3H-PGE2 displacement, 293S cell membranes). As to conditions: displacement of 3H-prostaglandin E2, 293S membranes, 1 hour at 25° C.
From the text: as §1, §2, §3, §4, §5, §6, §7

Test [3] deals with T1, rat EP4 receptor. Nature of the test: Whole cell 3H-PGE2 binding, Scatchard analysis of 293S/EP4 transfectants. As to conditions: cell lines selected for compound screening. The procedure: as §8

SMILES strings stand for the structures. pEC50, pIC50, pKd: −log10 of the molar value.

T1 sequence (P43114 whole entry): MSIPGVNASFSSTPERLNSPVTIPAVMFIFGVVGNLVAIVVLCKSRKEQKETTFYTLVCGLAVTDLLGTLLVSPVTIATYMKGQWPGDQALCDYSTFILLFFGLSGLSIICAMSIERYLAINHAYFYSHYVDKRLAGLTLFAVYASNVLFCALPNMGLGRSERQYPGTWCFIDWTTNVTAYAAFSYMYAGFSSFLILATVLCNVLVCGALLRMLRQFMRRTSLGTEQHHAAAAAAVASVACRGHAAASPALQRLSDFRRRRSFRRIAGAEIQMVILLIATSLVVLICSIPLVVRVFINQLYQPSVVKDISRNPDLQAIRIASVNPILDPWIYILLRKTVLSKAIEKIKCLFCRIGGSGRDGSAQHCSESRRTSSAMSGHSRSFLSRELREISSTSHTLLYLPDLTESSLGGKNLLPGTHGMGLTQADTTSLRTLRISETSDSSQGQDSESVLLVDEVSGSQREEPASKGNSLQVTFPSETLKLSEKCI

As usually defined, the pIC50 is −log10 of the IC50, conventionally taken in molar units. As usually defined, the pEC50 is −log10 of the EC50, conventionally taken in molar units. Consider `O=C1CCC(CCC(O)Cc2cccc(F)c2)N1CCCCCCc1nn[nH]n1` (stereo not drawn) [Example 7, 5-[4-(3-Fluoro-phenyl)-3-hydroxy-butyl]-1-[6-(2H-tetrazol-5-yl)-hexyl]-pyrrolidin-2-one], for which the pIC50 on rat EP4 receptor [1] was 7.02; on rat EP2 receptor, less than 5.49. For the same molecule, at rat EP4 receptor [2], the negative-log EC50 (pEC50) was 6.70.

In turn, `O=C(O)CCCCCCN1C(=O)CC[C@@H]1CCC(O)Cc1cccc(Oc2ccccc2)c1` (stereo partly drawn) [Example 10, 7-{2S-[3-Hydroxy-4-(3-phenoxy-phenyl)-butyl]-5-oxo-pyrrolidin-1-yl}-heptanoic acid] had a negative logarithm of the IC50 (pIC50) at rat EP4 receptor [1] of 6.27.

As for `O=C1CC[C@H](CC[C@@H](O)Cc2cccc(Cl)c2)N1CCCCCCc1nn[nH]n1` [Example 8, 5S-[4-(3-Chloro-phenyl)-3R-hydroxy-butyl]-1-[6-(2H-tetrazol-5-yl)-hexyl]-pyrrolidin-2-one], the values for the negative logarithm of the IC50 (pIC50) on rat EP4 receptor [1] and on rat EP2 receptor were 7.55 and less than 5.49, respectively. The pEC50 on rat EP4 receptor [2] is 7.61.

In the case of `O=C1CCC(CCC(O)Cc2ccc(F)cc2)N1CCCCCCc1nn[nH]n1` (stereo not drawn) [Example 5, 5-[4-(4-Fluoro-phenyl)-3-hydroxy-butyl]-1-[6-(2H-tetrazol-5-yl)-hexyl]-pyrrolidin-2-one], the pIC50 at rat EP4 receptor [1] was 6.29; on human EP3 receptor, less than 5.49; on rat EP2 receptor it was less than 5.49; on human EP1 receptor, less than 5.49.

For orientation: pKd means −log10 of the Kd, conventionally taken in molar units. High values mean a low Kd, low ones a high Kd. In the case of `CCCCC[C@H](O)/C=C/[C@H]1[C@H](O)CC(=O)[C@@H]1C/C=C\CCCC(=O)O` [PGE2, Prostaglandin E2], the pKd at rat EP4 receptor [3] was 8.54.

(Values after patent US20030176479A1, “Use of selective EP4 receptor agonists for the treatment of liver failure, loss of patency of the ductus arteriosus, glaucoma or ocular hypertension” (priority 2002, published 2003).)
